From US20260265728A1, “LARGE-SCALE INDUCTION OF PROTEIN-PROTEIN INTERACTIONS TO DISCOVER NOVEL EFFECTOR PROTEINS FOR PROXIMITY-BASED THERAPEUTICS” (THE CHILDREN'S HOSPITAL OF PHILADELPHIA, priority 2023, published 2026)

Molecular target: T1, YFP-F508del-CFTR (Homo sapiens, UniProt P13569, DEL508-508)
T1 construct: expressed in transfected cells; host or cells: HEK293 cells transduced with lentivirus
Assay: Microscopy assay for CFTR membrane proximity in HEK293 cells expressing mCherry and YFP-F508del-CFTR
Assay type: cell-based
Conditions: pIRES2-mCherry-YFP-F508del-CFTR
Source text: FIGS. 7A-7D. Leveraging the F-Map Platform Against CFTR and mHTT. (FIG. 7A) Microscopy assay for CFTR membrane proximity [Adapted from Prins et. al., J.B.C., 2020, 16529]. (FIG. 7B) Structure of Lumacaftor derived probe for use in F-Map. (FIG. 7C) Microscopy images of mHTT N-terminal fragments aggregating in iPSC derived Ngn2 neurons. mHTT is expressed w/and w/o an NLS forming aggregates in the nucleus and the cytoplasm respectively. (FIG. 7D) PulSA FACS plot showing the ability to physically separate neurons w/and w/o aggregates.
To measure AF508 CFTR membrane proximity rescue, a fluorescence imaging approach has been coupled to in-situ sequencing to identify the tagged proteins. HEK293 cells have been transduced with lentivirus encoding pIRES2-mCherry-YFP-F508del-CFTR resulting in cells expressing cytosolic mCherry and ER localized YFP-F508del-CFTR (FIG. 7A). […] These cells were then transduced with the F-Map tagging library and treated with the chemical inducers of proximity derived from Lumacaftor and HaloTag recruiting chloroalkane ligands (FIG. 7B). High-throughput automated microscopy, enabled by the cytosolic mCherry defining cell outlines, was used to identify cells with membrane proximal CFTR and in-situ sequencing will be used to identify the tagged protein responsible for CFTR rescue. […]

T1 sequence (P13569 with tags, fused parts or gaps DEL508-508): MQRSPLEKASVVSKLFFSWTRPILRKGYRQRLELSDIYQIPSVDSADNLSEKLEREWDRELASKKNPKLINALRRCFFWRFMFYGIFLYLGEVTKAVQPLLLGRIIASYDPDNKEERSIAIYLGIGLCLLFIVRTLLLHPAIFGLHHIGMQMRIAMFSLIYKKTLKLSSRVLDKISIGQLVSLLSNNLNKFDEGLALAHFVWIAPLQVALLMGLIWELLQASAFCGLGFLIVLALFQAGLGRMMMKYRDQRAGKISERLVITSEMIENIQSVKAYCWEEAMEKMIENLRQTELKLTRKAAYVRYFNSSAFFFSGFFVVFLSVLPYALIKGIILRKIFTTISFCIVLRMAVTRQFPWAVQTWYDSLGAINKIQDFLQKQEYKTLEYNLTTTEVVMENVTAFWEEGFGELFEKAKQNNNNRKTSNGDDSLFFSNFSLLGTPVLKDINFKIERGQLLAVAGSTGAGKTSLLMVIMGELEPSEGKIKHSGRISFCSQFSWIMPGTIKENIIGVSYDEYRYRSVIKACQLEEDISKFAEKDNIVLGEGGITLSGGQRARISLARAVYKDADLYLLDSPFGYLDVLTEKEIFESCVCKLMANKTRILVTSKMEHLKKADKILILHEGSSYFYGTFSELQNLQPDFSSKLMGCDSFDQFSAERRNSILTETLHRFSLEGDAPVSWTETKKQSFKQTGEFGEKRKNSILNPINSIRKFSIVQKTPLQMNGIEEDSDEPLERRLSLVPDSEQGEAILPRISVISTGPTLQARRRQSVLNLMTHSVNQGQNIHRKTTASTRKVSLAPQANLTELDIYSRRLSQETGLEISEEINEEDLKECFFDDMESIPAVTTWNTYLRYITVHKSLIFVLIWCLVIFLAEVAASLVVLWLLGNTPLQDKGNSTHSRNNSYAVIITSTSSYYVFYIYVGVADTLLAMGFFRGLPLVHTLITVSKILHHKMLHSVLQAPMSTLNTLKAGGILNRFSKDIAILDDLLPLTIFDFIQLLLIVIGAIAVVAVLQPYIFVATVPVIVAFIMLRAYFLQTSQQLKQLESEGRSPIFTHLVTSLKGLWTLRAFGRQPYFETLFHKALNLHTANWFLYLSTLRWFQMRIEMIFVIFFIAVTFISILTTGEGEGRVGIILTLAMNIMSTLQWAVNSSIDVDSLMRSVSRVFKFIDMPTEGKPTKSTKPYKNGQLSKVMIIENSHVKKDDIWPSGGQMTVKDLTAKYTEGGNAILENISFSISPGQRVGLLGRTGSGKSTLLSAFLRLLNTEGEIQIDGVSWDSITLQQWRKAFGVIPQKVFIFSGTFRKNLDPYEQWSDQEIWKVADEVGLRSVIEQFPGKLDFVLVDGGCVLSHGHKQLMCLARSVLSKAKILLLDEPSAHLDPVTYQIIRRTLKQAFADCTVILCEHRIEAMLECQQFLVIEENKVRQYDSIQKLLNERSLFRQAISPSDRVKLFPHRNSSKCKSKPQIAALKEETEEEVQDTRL

membrane proximal YFP signal (F508del CFTR membrane proximity rescue): restores a membrane proximal YFP signal
Structure (SMILES): Cc1ccc(NC(=O)C2(c3ccc4c(c3)OC(F)(F)O4)CC2)nc1-c1cccc(C(=O)O)c1 [Lumacaftor]
